Test results published in patent US20260373101A1, “POLYAMINATED FATTY ACIDS FOR USE AS POTENTIATORS OF ANTIBACTERIAL ACTIVITY” (priority 2023, published 2026).
Converted amounts (≈) assume the structure as drawn.

Tested on: P. aeruginosa ATCC27853
Assay: Intrinsic antibacterial activity, standard microdilution (CLSI)
Type: cell-based
Conditions: Pseudomonas aeruginosa; P. aeruginosa ATCC27853, compound alone, 24 h, 37 °C
Method: (§1) The bacterial strains used in the examples below are the reference strains P. aeruginosa ATCC27853, E. coli ATCC25922, K. pneumoniae ATCC51296, S. aureus ATCC25923 and E. faecalis ATCC29212. The bacterial strains were previously stored in 15% (v/v) glycerol at −80 °C for cryoprotection. One colony of the fresh culture of each strain was incubated in a culture tube containing 3 ml of Mueller-Hinton broth (MH2) at 37 °C overnight with agitation. This suspension was used for inoculum preparation.
(§2) The antibacterial activity of said polyaminated fatty acid compounds was measured using a standard microdilution test based on Clinical and Laboratory Standards Institute (CLSI) guidelines. This method was slightly modified by increasing the assay volumes to 200 μl so as to improve reproducibility.
(§3) A negative control which corresponds to 2 ml of sterile culture medium and a positive control which corresponds to a mixture of 1980 μl of culture medium and 20 μl of bacterial suspension from a thawed biological strain (biological strains are stored at −80 °C in glycerol) were prepared.
(§4) The tubes were incubated in an incubator shaker “Infors” at 37 °C for 24 hours at 100 round per minute (rpm).
(§5) The polyaminated fatty acid compounds to be tested were prepared in water at a concentration of 10 mM.
(§6) The required volume of the microbial suspension to be inoculated was calculated for an optical density (OD) measured corresponding to a value equal to 0.01 in each well by using a spectrophotometer at 600 nm. In the microplate, the first row corresponded to the negative control (200 μl of sterile culture medium in each well), the second row to the positive control (seeded culture medium), the third row was loaded twice with bacterial suspension and with 8 μl of a given polyaminated fatty acid compound in each well. Subsequently, a half-fold cascade dilution was performed from this line. The first column was used as an inhibition control. A sterile filter was then placed on the microplate allowing the passage of gases but not contaminants. The microplate was incubated at 37 °C in a humid atmosphere for 24 hours. After 24 hours of incubation, an optical density measurement was performed by taking 100 μl of the bacterial suspension diluted in 900 μl of sterile culture medium.
(§7) The medium used was Mueller-Hinton medium (MH) for bacteria. All tests were performed in duplicate.
(§8) Table 1 below reports the intrinsic antibacterial activity of some polymaminated fatty acids prepared in example 1 (MIC in μM) as well as their toxicity towards eucaryotic cells (IC50 in μM).

| SMILES | MIC [µM] |
| --- | --- |
| CCCCC/C=C\C/C=C\CCCCCCCC(=O)NCCCN [PAFA7] | > 200 |
| CCCCC/C=C\C/C=C\CCCCCCCC(=O)NCCCNCCCNCCCN [PAFA13] | 200 (≈ 90.2 µg/mL) |
| CCCCCCCCCCCCCCCC(=O)NCCCNCCCCNCCCN [PAFA4] | > 200 |
| CCCCCCCC/C=C\CCCCCCCC(=O)NCCCNCCCCNCCCN [PAFA1] | > 200 |

Tested on: S. aureus ATCC25923
Assay: as above
Type: cell-based
Conditions: Staphylococcus aureus; S. aureus ATCC25923, compound alone, 24 h, 37 °C
Method: as §1, §2, §3, §4, §5, §6, §7, §8

| SMILES | MIC [µM] |
| --- | --- |
| CCCCC/C=C\C/C=C\CCCCCCCC(=O)NCCCN [PAFA7] | 50 (≈ 16.8 µg/mL) |
| CCCCC/C=C\C/C=C\CCCCCCCC(=O)NCCCNCCCNCCCN [PAFA13] | 50 (≈ 22.5 µg/mL) |
| CCCCCCCCCCCCCCCC(=O)NCCCNCCCCNCCCN [PAFA4] | > 200 |
| CCCCCCCC/C=C\CCCCCCCC(=O)NCCCNCCCCNCCCN [PAFA1] | > 200 |

Tested on: E. coli ATCC28922
Assay: as above
Type: cell-based
Conditions: Escherichia coli, ATCC28922, 24 h

| SMILES | MIC [µM] |
| --- | --- |
| CCCCC/C=C\C/C=C\CCCCCCCC(=O)NCCCN [PAFA7] | 100 (≈ 33.7 µg/mL) |
| CCCCC/C=C\C/C=C\CCCCCCCC(=O)NCCCNCCCNCCCN [PAFA13] | 100 (≈ 45.1 µg/mL) |
| CCCCCCCCCCCCCCCC(=O)NCCCNCCCCNCCCN [PAFA4] | > 200 |
| CCCCCCCC/C=C\CCCCCCCC(=O)NCCCNCCCCNCCCN [PAFA1] | > 200 |

Tested on: Chinese hamster ovary cells (CHO-K1)
Assay: Toxicity on mammalian cells, WST1 assay
Type: cell-based
Conditions: Cricetulus griseus; CHO-K1 cell viability, WST1, 24 h
Method: The WST1 assay was used to measure the cytotoxic activity of the polyaminated fatty acid compounds. It is a colorimetric assay that measures viability and cell proliferation rate. It is based on the cleavage of colorless tetrazolium salts WST-1 (4-[3-(4-iodophenyl)-2-(4-nitrophenyl)-2H-5-tetrazolio]-1,3-benzene disulfonate) by mitochondrial dehydrogenases into yellow formazan derivative, quantifiable by spectrophotometry at 420-480 nm.
The WST1 assay was performed on Chinese hamster ovary cells. CHO-K1 cells (ATCC, USA) were maintained in culture in “Mac Coy's 5A” medium supplemented with 10% fetal calf serum, 2 mM L-glutamine and streptomycin penicillin mixture (100 U/ml: 10 μg/ml). Incubation is carried out at 37 °C under CO2 enriched atmosphere (5% by volume) and subcultured every two days.
Cells are transferred to 96-well plates (25,000 cells/ml) in complete “Mac Coy's 5A medium”, and maintained for 24 h at 37 °C under a humid CO2-enriched atmosphere (5% by volume). Increasing concentrations of given polyaminated fatty acid compounds are added to the wells in duplicate assays and 8 growth controls containing cells in medium alone are included in each assay run. After 24 hours at 37 °C (5% CO2), the culture medium is removed, the cells are rinsed in phosphate buffer (PBS) and 50 μL of PBS containing 10% WST1 reagent is added to each well. After 20 minutes of incubation at 37 °C, the results are read by spectrophotometry at 450 nm.
The results are expressed as dose-response relationships, modeled by a non-linear regression analysis using TableCurve software. The 50% Inhibitory Concentration (IC50) represents the concentration of polyaminated fatty acid compound capable of reducing cell viability by 50%.

| SMILES | IC50 [µM] |
| --- | --- |
| CCCCC/C=C\C/C=C\CCCCCCCC(=O)NCCCN [PAFA7] | 168 |
| CCCCC/C=C\C/C=C\CCCCCCCC(=O)NCCCNCCCNCCCN [PAFA13] | 465 |
| CCCCCCCCCCCCCCCC(=O)NCCCNCCCCNCCCN [PAFA4] | 268 |
| CCCCCCCC/C=C\CCCCCCCC(=O)NCCCNCCCCNCCCN [PAFA1] | 152 |
